Data on one compound can be found in US8252807B2, “Methods of inhibiting the interaction between S100 and the receptor for advanced glycation end-products” (Board of Regents, The University of Texas System, priority 2007, dated 2012).

In one assay the target is T1, S100P and RAGE (Homo sapiens, UniProt P25815).
T1 construct: endogenous in cells; host or cells: BxPC-3 pancreatic adenocarcinoma cell lysate
T1 sequence (P25815 1-95): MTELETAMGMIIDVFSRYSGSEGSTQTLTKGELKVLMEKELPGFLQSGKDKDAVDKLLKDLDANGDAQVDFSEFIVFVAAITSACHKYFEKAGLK
The assay can be described thus: Co-immunoprecipitation of S100P and RAGE from BxPC-3 cell lysates. The assay is classed as binding. The settings on record: cromolyn 100 μM. The procedure:
Receptor for advanced glycation end products (RAGE) was identified in the immunoprecipitates by immunoblotting with a goat polyclonal anti-RAGE antibody and anti-S100P as an internal control. In the lower panel, one representative blot and densitometric analysis (means and 95% confidence intervals [CIs]) of three independent experiments is shown. *P<0.001, versus IP α-S100P without cromolyn.
For co-immunoprecipitation experiments, BxPC-3 cell lysates were incubated in the absence or presence of cromolyn (100 μM) at 4° C. overnight. S100P was immunoprecipitated using a mouse monoclonal anti-S100P antibody (Transduction Laboratories, San Diego, Calif.) for 6 hours at 4° C. and IgG-immobilized beads (Pierce Biotechnology, Inc. Rockford, Ill.). Antibody-associated proteins were electrophoresed on 10% polyacrylamide gels and electrophoretically transferred to nitrocellulose membranes. Membranes were blocked in PBS/5% milk overnight at 4° C. RAGE was detected using a goat polyclonal anti-RAGE antibody (1:200, Santa Cruz, Santa Cruz, Calif.), and S100P was detected using a goat polyclonal anti-S100P antibody (1:50, R & D systems, Minneapolis, Minn.) by immunoblotting as described in Arumugam, et al., S100P stimulates cell proliferation and survival via receptor for activated glycation end products (RAGE); J. Biol. Chem. 2004 Feb. 13; 279(7):5059-65. Briefly, membranes were incubated in primary antibody for 1 hour at room temperature followed by incubation with horseradish peroxidase-labeled secondary antibody for 30 minutes at room temperature. After a thorough wash in TBS-T buffer (1M Tris-HCL pH 8.3, 3M NaCl, 0.1% Tween-20), antibody-protein complexes were detected by using a chemiluminescent substrate (GE Healthcare Bio-Sciences Corp., Piscataway, N.J.). The intensity of the band was estimated (as density units) using densitometry (GS-250 Molecular Imaging System, Bio-Rad Laboratories, Richmond, Calif.). The experiment was repeated three times.

A further assay has as its system PC3 prostate cells. The assay can be described thus: PC3 prostate cell proliferation. Type of assay: cell-based. To be noted: 24, 48 and 72 hours. Here is the method:
PC3 prostate cells were cultured for up to three days in the presence of different concentrations of cromolyn, and cell proliferation was analyzed at 24, 48, and 72 hours. *, P<0.05.

A further assay concerns the target T2, S100P (Homo sapiens, UniProt P25815).
T2 construct: full-length human S100P cDNA (NM_005980) was cloned into the pTrcHis2 vector; His tag; made in house
Put plainly: S100P binding to cromolyn using affinity chromatography. To be noted: cromolyn coupled to AF-TOYOPEARL; EGTA elution; control column did not retain. Here is the method: Cromolyn was coupled with the amino group of AF-amino TOYOPEARL to generate a cromolyn affinity column. A negative control column was prepared by blocking the amino group. Purified S100P was added to both columns, which were then washed extensively. Protein was eluted from the columns using EGTA and subjected to sodium dodecylsulfate polyacrylamide gel electrophoresis and staining with Commassie blue. Lane 1 of the gel is the molecular weight marker; lane 2 is the eluate from the control column; and lane 3 is the eluate from the cromolyn column (arrow, S100P). The gel shown is one of three independent experiments.
Cromolyn was coupled to AF-TOYOPEARL resin as described in Shishibori, et al., Three distinct anti-allergic drugs, amlexanox, cromolyn and tranilast, bind to S100A 12 and S100A13 of the S100 protein family; Biochem. J. 1999 Mar. 15; 338 (Pt 3):583-9. Briefly, 0.1 grams of cromolyn was dissolved in 1 mL of N,N-dimethylformamide and added to 7 mL (5 grams wet mass) AF-TOYOPEARL. Next, 0.5 grams of N-ethyl-N-(3-dimethylaminopropyl) carbodiimide hydrochloride, suspended in 10 mL of N,N-dimethylformamide, was added to the cromolyn+AF-TOYOPEARL slurry. The pH was adjusted to 5.0, and the slurry was incubated with gentle shaking for 48 hours at 25° C. As a negative control, a column was prepared by blocking the amino group of AF-TOYOPEARL with sodium acetate and acetic anhydride. […]

With `O=C(O)c1cc(=O)c2c(OCC(O)COc3cccc4oc(C(=O)O)cc(=O)c34)cccc2o1` [cromolyn, disodium 1,3-bis[(2′-carboxylatochromon-5′-yl)oxy]-2-hydroxypropane], on S100P and RAGE, the “co-immunoprecipitation of S100P and RAGE, difference control versus cromolyn” value was found to be 25640 density units; the “total amount of S100P immunoprecipitated” value was “no effect”. For the same compound, the “co-immunoprecipitation of S100P and RAGE, mean” value at S100P and RAGE (control mean=34040) amounted to 8410 density units. In the assay with PC3 prostate cells, the “growth of PC3 cells” value is given as “reduced growth”. Also, the “S100P retained by cromolyn affinity column” value at S100P was “retained S100P”.
